Laboratory results reported in the NIST ThermoML archive (doi:10.1021/je400055v).

Conditions: Liquid, Vibrating tube method

Cc1ccc(O)cc1 [4-methylphenol]
Conditions	mass density [kg/m3]
312.9 K, 1002 kPa	1019.4
312.9 K, 2016 kPa	1020
312.9 K, 3017 kPa	1020.6
312.9 K, 4016 kPa	1021.1
312.9 K, 5002 kPa	1021.7
312.9 K, 6010 kPa	1022.2
312.9 K, 7000 kPa	1022.8
312.9 K, 8006 kPa	1023.3
312.9 K, 9001 kPa	1023.9
312.9 K, 10002 kPa	1024.4
312.9 K, 11006 kPa	1024.9
312.9 K, 12002 kPa	1025.5
312.9 K, 13015 kPa	1026
312.9 K, 14007 kPa	1026.6
312.9 K, 15006 kPa	1027.1
312.9 K, 16019 kPa	1027.6
312.9 K, 17004 kPa	1028.1
312.9 K, 18011 kPa	1028.6
312.9 K, 19009 kPa	1029.2
312.9 K, 20005 kPa	1029.7
312.9 K, 21008 kPa	1030.2
312.9 K, 22004 kPa	1030.7
312.9 K, 23023 kPa	1031.2
312.9 K, 24004 kPa	1031.7
312.9 K, 25006 kPa	1032.2
322.78 K, 1019 kPa	1011.6
322.78 K, 2015 kPa	1012.2
322.78 K, 3002 kPa	1012.8
322.78 K, 4013 kPa	1013.4
322.78 K, 5011 kPa	1013.9
322.78 K, 6018 kPa	1014.5
322.78 K, 7022 kPa	1015.1
322.78 K, 8001 kPa	1015.7
322.78 K, 9015 kPa	1016.3
322.78 K, 10006 kPa	1016.8
322.78 K, 11002 kPa	1017.4
322.78 K, 12018 kPa	1017.9
322.78 K, 13002 kPa	1018.4
322.78 K, 14016 kPa	1019
322.78 K, 15001 kPa	1019.5
322.78 K, 16000 kPa	1020.1
322.78 K, 17001 kPa	1020.6
322.78 K, 18029 kPa	1021.2
322.78 K, 19015 kPa	1021.7
322.78 K, 20011 kPa	1022.2
322.78 K, 21022 kPa	1022.8
322.78 K, 22002 kPa	1023.3
322.78 K, 23006 kPa	1023.8
322.78 K, 24010 kPa	1024.4
322.78 K, 25023 kPa	1024.9
332.54 K, 1040 kPa	1003.7
332.54 K, 2019 kPa	1004.3
332.54 K, 3013 kPa	1005
332.54 K, 4019 kPa	1005.6
332.54 K, 5001 kPa	1006.2
332.54 K, 6001 kPa	1006.8
332.54 K, 7002 kPa	1007.5
332.54 K, 8041 kPa	1008.1
332.54 K, 9000 kPa	1008.7
332.54 K, 10001 kPa	1009.2
332.54 K, 11006 kPa	1009.7
332.54 K, 12001 kPa	1010.4
332.54 K, 13008 kPa	1010.9
332.54 K, 14004 kPa	1011.5
332.54 K, 15003 kPa	1012.1
332.54 K, 16015 kPa	1012.7
332.54 K, 17011 kPa	1013.3
332.54 K, 18014 kPa	1013.9
332.54 K, 19014 kPa	1014.4
332.54 K, 20009 kPa	1014.9
332.54 K, 21013 kPa	1015.4
332.54 K, 22007 kPa	1016
332.54 K, 23000 kPa	1016.6
332.54 K, 24001 kPa	1017.1
332.54 K, 25032 kPa	1017.7
